# Test results reported in the supplement of paper PMC10307832.
# How the values were obtained:
# Test in all cases: relative viability (nuclei count vs DMSO), 5 days (fraction); higher = more cells survive
# [1] = tested on: RERF-LC-KJ
# Outline: (§1)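 Lung cancer cell lines in 1536-well plates got either a single drug or a fixed anchor-drug dose together with five library-drug doses (not always all listed) in √10 steps, by pin tool, on the day after seeding. Nuclei were counted after 5 days, and relative viability is the treated-to-vehicle ratio of nuclei counts. Values are medians of duplicate plates.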
# [2] = tested on: NCI-H1915
# Outline: as §1
# [3] = tested on: NCI-H1755
# Outline: as §1
# [4] = tested on: LC-2-ad
# Outline: as §1
# [5] = tested on: SW 1573
# Outline: as §1
# [6] = tested on: HOP-62
# Outline: as §1
# [7] = tested on: PC-3 [JPC-3]
# Outline: as §1
# [8] = tested on: NCI-H2342
# Outline: as §1
# [9] = tested on: NCI-H2347
# Outline: as §1
# [10] = tested on: NCI-H2126
# Outline: as §1
# [11] = tested on: NCI-H2228
# Outline: as §1
# [12] = tested on: NCI-H358
# Outline: as §1
# [13] = tested on: NCI-H1734
# Outline: as §1
# [14] = tested on: HCC-15
# Outline: as §1
# [15] = tested on: NCI-H522
# Outline: as §1
# [16] = tested on: LXF-289
# Outline: as §1
# [17] = tested on: HCC-78
# Outline: as §1
# [18] = tested on: A-427
# Outline: as §1
# [19] = tested on: NCI-H647
# Outline: as §1
# [20] = tested on: NCI-H1975
# Outline: as §1
# [21] = tested on: NCI-H1792
# Outline: as §1
# [22] = tested on: SK-LU-1
# Outline: as §1
structure (smiles),measurement,setting,value
O=c1cc(N2CCOCC2)oc2c(-c3cccc4c3sc3ccccc34)cccc12 + COc1cccc2cc(-c3nc([C@H]4CC[C@H](C(=O)O)CC4)n4ncnc(N)c34)[nH]c12 [OSI-027] (partner 0.5 µM),relative viability,[1]; first compound 0.01 µM,0.617
same,relative viability,[1]; first compound 0.03162 µM,0.635
same,relative viability,[1]; first compound 0.1 µM,0.6
same,relative viability,[1]; first compound 0.3162 µM,0.615
same,relative viability,[1]; first compound 1 µM,0.555
same,relative viability,[2]; first compound 0.01 µM,0.672
same,relative viability,[2]; first compound 0.03162 µM,0.796
same,relative viability,[2]; first compound 0.1 µM,0.663
same,relative viability,[2]; first compound 0.3162 µM,0.647
same,relative viability,[2]; first compound 1 µM,0.65
same,relative viability,[3]; first compound 0.01 µM,0.785
same,relative viability,[3]; first compound 0.03162 µM,0.691
same,relative viability,[3]; first compound 0.1 µM,0.783
same,relative viability,[3]; first compound 0.3162 µM,0.673
same,relative viability,[3]; first compound 1 µM,0.685
same,relative viability,[4]; first compound 0.01 µM,0.903
same,relative viability,[4]; first compound 0.03162 µM,0.993
same,relative viability,[4]; first compound 0.1 µM,0.877
same,relative viability,[4]; first compound 0.3162 µM,0.915
same,relative viability,[4]; first compound 1 µM,0.785
same,relative viability,[5]; first compound 0.01 µM,0.675
same,relative viability,[5]; first compound 0.03162 µM,0.709
same,relative viability,[5]; first compound 0.1 µM,0.678
same,relative viability,[5]; first compound 0.3162 µM,0.615
same,relative viability,[5]; first compound 1 µM,0.737
same,relative viability,[6]; first compound 0.01 µM,0.787
same,relative viability,[6]; first compound 0.03162 µM,0.842
same,relative viability,[6]; first compound 0.1 µM,0.821
same,relative viability,[6]; first compound 0.3162 µM,0.81
same,relative viability,[6]; first compound 1 µM,0.804
same,relative viability,[7]; first compound 0.01 µM,0.762
same,relative viability,[7]; first compound 0.03162 µM,0.768
same,relative viability,[7]; first compound 0.1 µM,0.644
same,relative viability,[7]; first compound 0.3162 µM,0.738
same,relative viability,[7]; first compound 1 µM,0.825
same,relative viability,[8]; first compound 0.01 µM,0.641
same,relative viability,[8]; first compound 0.03162 µM,0.591
same,relative viability,[8]; first compound 0.1 µM,0.652
same,relative viability,[8]; first compound 0.3162 µM,0.715
same,relative viability,[8]; first compound 1 µM,0.533
same,relative viability,[9]; first compound 0.01 µM,0.503
same,relative viability,[9]; first compound 0.03162 µM,0.392
same,relative viability,[9]; first compound 0.1 µM,0.522
same,relative viability,[9]; first compound 0.3162 µM,0.42
same,relative viability,[9]; first compound 1 µM,0.461
same,relative viability,[10]; first compound 0.01 µM,0.709
same,relative viability,[10]; first compound 0.03162 µM,0.707
same,relative viability,[10]; first compound 0.1 µM,0.706
same,relative viability,[10]; first compound 0.3162 µM,0.772
same,relative viability,[10]; first compound 1 µM,0.702
same,relative viability,[11]; first compound 0.01 µM,0.677
same,relative viability,[11]; first compound 0.03162 µM,0.775
same,relative viability,[11]; first compound 0.1 µM,0.558
same,relative viability,[11]; first compound 0.3162 µM,0.605
same,relative viability,[11]; first compound 1 µM,0.548
same,relative viability,[12]; first compound 0.01 µM,0.83
same,relative viability,[12]; first compound 0.03162 µM,0.878
same,relative viability,[12]; first compound 0.1 µM,0.881
same,relative viability,[12]; first compound 0.3162 µM,0.844
same,relative viability,[12]; first compound 1 µM,0.781
same,relative viability,[13]; first compound 0.01 µM,0.697
same,relative viability,[13]; first compound 0.03162 µM,0.599
same,relative viability,[13]; first compound 0.1 µM,0.579
same,relative viability,[13]; first compound 0.3162 µM,0.67
same,relative viability,[13]; first compound 1 µM,0.609
same,relative viability,[14]; first compound 0.01 µM,0.674
same,relative viability,[14]; first compound 0.03162 µM,0.807
same,relative viability,[14]; first compound 0.1 µM,0.774
same,relative viability,[14]; first compound 0.3162 µM,0.688
same,relative viability,[14]; first compound 1 µM,0.67
same,relative viability,[15]; first compound 0.01 µM,0.83
same,relative viability,[15]; first compound 0.03162 µM,0.708
same,relative viability,[15]; first compound 0.1 µM,0.496
same,relative viability,[15]; first compound 0.3162 µM,0.737
same,relative viability,[15]; first compound 1 µM,0.737
same,relative viability,[16]; first compound 0.01 µM,0.807
same,relative viability,[16]; first compound 0.03162 µM,0.778
same,relative viability,[16]; first compound 0.1 µM,0.755
same,relative viability,[16]; first compound 0.3162 µM,0.825
same,relative viability,[16]; first compound 1 µM,0.81
same,relative viability,[17]; first compound 0.01 µM,0.369
same,relative viability,[17]; first compound 0.03162 µM,0.362
same,relative viability,[17]; first compound 0.1 µM,0.297
same,relative viability,[17]; first compound 0.3162 µM,0.347
same,relative viability,[17]; first compound 1 µM,0.342
same,relative viability,[18]; first compound 0.01 µM,0.514
same,relative viability,[18]; first compound 0.03162 µM,0.469
same,relative viability,[18]; first compound 0.1 µM,0.337
same,relative viability,[18]; first compound 0.3162 µM,0.484
same,relative viability,[18]; first compound 1 µM,0.587
same,relative viability,[19]; first compound 0.01 µM,0.689
same,relative viability,[19]; first compound 0.03162 µM,0.739
same,relative viability,[19]; first compound 0.1 µM,0.302
same,relative viability,[19]; first compound 0.3162 µM,0.747
same,relative viability,[19]; first compound 1 µM,0.745
same,relative viability,[20]; first compound 0.01 µM,0.718
same,relative viability,[20]; first compound 0.03162 µM,0.73
same,relative viability,[20]; first compound 0.1 µM,0.792
same,relative viability,[20]; first compound 0.3162 µM,0.874
same,relative viability,[20]; first compound 1 µM,0.752
same,relative viability,[21]; first compound 0.01 µM,0.717
same,relative viability,[21]; first compound 0.03162 µM,0.716
same,relative viability,[21]; first compound 0.1 µM,0.653
same,relative viability,[21]; first compound 0.3162 µM,0.752
same,relative viability,[21]; first compound 1 µM,0.779
same,relative viability,[22]; first compound 0.01 µM,0.35
same,relative viability,[22]; first compound 0.03162 µM,0.393
same,relative viability,[22]; first compound 0.1 µM,0.355
same,relative viability,[22]; first compound 0.3162 µM,0.398
same,relative viability,[22]; first compound 1 µM,0.415
